Consider 25 compounds from ChEMBL document CHEMBL1201862, “PubChem BioAssay data set” (2004).

Active and inactive are the calls of the source. Some results are limits rather than exact numbers.

The nature of experiment [1]: inhibitors of firefly luciferase expression or activity, dose response, H4 neuroglioma cells, luminescence (AID 1990). The format is functional, cell-based.
Experiment [2] is described as follows: inhibitors of SNCA 5'UTR-driven reporter translation, confirmation, H4 neuroglioma cells, luminescence (AID 1988). Format: functional, cell-based.
Experiment [3] is described as follows: Luminescence Cell-Based Dose Response HTS to Identify Inhibitors of 5'UTR Stem-Loop Driven Prion Protein mRNA Translation in H4 Neuroglioblastoma Cells. [Related pubchem assays: 1827 (Project Summary), 1813 (Primary HTS)]. Format: functional.
A short description of experiment [4]: cytotoxicity toward NIH3T3 fibroblasts, dose response, counter-screen, cell-based, ATP luminescence, mouse fibroblasts (AID 2010).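 Further: cells exposed to compound for about 90 hours before reading.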 Format: functional.
Experiment [5] has as its target T1, Heat shock factor protein 1 (Mus musculus, UniProt P38532).
T1 sequence (P38532 whole entry): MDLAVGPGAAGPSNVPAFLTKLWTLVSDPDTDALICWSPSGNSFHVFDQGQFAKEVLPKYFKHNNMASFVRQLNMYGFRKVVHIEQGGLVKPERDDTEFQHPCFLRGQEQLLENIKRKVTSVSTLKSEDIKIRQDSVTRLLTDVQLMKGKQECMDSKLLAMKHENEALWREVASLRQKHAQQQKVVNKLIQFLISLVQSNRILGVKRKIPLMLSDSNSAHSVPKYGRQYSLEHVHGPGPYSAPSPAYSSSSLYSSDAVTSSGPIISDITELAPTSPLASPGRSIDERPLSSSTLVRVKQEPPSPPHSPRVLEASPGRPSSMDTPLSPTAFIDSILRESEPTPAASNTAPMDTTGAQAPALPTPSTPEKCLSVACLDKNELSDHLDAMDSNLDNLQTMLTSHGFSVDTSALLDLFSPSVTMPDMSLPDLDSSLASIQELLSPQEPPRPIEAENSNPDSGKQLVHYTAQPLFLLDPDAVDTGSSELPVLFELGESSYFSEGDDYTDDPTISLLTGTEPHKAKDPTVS
Description: HSF1 potentiators in luciferase reporter cells, confirmation, cell-based, NIH3T3, luminescence, dose retest (AID 435004).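 Further: stress induced by proteasome inhibitor MG132 added 30 min after compound; luciferase reporter driven by HSF1 response element in NIH3T3 cells; actives raise luminescence as potentiators of the MG132 stress response.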 The format is functional.

Experiment [6] addresses T2, Replicative DNA helicase DnaB (Mycobacterium tuberculosis, UniProt P9WMR3).
T2 sequence (P9WMR3 whole entry): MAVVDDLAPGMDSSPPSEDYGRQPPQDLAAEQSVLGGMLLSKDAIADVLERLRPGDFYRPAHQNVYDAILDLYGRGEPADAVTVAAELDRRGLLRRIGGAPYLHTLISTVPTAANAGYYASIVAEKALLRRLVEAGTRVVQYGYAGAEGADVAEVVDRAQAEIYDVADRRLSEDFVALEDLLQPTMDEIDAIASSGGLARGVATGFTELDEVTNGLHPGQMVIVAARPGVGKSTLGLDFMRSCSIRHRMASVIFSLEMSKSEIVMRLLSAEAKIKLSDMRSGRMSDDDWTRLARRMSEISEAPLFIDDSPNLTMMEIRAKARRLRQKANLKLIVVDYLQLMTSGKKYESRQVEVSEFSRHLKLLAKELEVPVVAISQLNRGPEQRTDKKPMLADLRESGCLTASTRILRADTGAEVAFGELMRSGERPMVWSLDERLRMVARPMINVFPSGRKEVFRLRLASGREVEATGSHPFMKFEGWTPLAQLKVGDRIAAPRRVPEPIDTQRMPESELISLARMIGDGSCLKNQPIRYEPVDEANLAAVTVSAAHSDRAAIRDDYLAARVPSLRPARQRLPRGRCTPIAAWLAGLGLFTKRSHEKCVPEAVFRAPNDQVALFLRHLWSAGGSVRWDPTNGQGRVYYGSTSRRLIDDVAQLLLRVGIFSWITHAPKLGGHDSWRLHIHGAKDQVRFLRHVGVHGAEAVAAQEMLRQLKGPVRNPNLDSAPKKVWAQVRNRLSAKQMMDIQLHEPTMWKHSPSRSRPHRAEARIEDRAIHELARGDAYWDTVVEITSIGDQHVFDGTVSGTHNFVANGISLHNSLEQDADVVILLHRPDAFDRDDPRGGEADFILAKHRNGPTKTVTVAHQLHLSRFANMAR
Description: DnaB intein splicing inhibitors, dose response, biochemical, cell-free fluorescence (AID 449749). Format: functional.

Experiment [7] can be described thus: inhibitors of intracellular T. cruzi replication, confirmation, NIH3T3 host cells, beta-gal luminescence (AID 2044).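 Further: intracellular parasites grown in NIH/3T3 mouse fibroblasts as host cells; luminescent beta-galactosidase reporter signal from transgenic T. cruzi replicating inside host cells; inhibitors lower the luminescence signal.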 Format: functional, cell-based.
The next experiment concerns INS1. Briefly: beta cell apoptosis inhibitors, cytokine rescue, dose response, luminescence, retest (AID 449756).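 Further: cell death triggered by IL-1 beta plus TNF-alpha plus IFN-gamma mixture; protective hits raise ATP signal compared with cytokine alone wells.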 The format is functional, cell-based. Conditions: Rattus norvegicus.
For another experiment, the target named is T3, Protein RecA (Mycobacterium tuberculosis, UniProt P9WHJ3).
T3 sequence (P9WHJ3 whole entry): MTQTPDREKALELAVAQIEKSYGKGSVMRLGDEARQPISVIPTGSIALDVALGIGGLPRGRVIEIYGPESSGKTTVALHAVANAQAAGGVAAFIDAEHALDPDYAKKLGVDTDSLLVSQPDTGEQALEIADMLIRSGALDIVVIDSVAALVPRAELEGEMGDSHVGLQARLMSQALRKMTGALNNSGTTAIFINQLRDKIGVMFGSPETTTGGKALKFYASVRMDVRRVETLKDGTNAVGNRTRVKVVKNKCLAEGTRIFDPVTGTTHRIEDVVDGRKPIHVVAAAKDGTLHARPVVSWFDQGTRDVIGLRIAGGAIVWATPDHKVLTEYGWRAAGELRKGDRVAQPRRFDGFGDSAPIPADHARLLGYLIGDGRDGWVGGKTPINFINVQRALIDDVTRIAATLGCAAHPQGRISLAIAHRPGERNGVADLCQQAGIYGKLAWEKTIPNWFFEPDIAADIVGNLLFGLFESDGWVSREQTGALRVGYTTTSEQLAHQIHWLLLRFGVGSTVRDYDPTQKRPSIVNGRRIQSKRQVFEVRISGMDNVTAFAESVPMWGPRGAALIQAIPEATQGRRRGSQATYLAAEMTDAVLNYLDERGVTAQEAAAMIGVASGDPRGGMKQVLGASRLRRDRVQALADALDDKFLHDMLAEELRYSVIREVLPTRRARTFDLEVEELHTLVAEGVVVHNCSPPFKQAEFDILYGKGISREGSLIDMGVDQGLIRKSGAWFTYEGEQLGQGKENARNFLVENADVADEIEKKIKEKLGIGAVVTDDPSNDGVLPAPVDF
Briefly: Fluorescence Cell-Free Homogeneous Dose Retest to Identify Inhibitors of RecA-Intein Splicing Activity. [Related pubchem assays (depositor defined):AID2097, AID2223, AID489010, AID492950]. Format: functional.

Experiment [8] in a line: Luminescence Cell-Based Dose Retest to Confirm Inhibitors of Cancer Stem Cells. [Related pubchem assays (depositor defined):AID2717, AID2721]. Format: functional. Conditions: Homo sapiens.
The target of experiment [9] is T4, Rac GTPase-activating protein 1 (Homo sapiens, UniProt Q9H0H5).
T4 sequence (Q9H0H5 whole entry): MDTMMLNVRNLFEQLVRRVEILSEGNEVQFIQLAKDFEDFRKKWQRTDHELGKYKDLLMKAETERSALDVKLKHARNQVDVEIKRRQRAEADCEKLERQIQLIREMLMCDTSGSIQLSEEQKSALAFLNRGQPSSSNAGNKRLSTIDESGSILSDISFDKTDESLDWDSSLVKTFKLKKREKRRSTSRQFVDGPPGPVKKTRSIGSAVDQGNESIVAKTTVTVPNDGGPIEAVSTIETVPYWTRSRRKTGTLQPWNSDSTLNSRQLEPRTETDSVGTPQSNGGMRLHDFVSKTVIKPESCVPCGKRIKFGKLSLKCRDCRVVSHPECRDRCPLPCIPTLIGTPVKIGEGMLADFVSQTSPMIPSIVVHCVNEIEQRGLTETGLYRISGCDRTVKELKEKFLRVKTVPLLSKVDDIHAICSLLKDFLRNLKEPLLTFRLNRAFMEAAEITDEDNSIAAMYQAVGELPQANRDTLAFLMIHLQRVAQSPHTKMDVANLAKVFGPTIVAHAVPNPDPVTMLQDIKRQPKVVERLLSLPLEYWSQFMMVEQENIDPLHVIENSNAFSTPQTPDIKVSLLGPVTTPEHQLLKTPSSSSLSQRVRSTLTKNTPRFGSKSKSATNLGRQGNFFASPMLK
Briefly: MgcRacGAP GTPase-activating activity inhibitors, confirmation, biochemical, ADP Hunter fluorescence, primary and confirmatory (AID 624330). The format is functional.

In another experiment the target is Large T antigen (Simian virus 40, UniProt P03070). Format: functional, Betapolyomavirus macacae.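 Further: Confirmatory-stage PubChem screen for compounds that inhibit SV40 T antigen.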
Chain of Large T antigen (P03070 whole entry): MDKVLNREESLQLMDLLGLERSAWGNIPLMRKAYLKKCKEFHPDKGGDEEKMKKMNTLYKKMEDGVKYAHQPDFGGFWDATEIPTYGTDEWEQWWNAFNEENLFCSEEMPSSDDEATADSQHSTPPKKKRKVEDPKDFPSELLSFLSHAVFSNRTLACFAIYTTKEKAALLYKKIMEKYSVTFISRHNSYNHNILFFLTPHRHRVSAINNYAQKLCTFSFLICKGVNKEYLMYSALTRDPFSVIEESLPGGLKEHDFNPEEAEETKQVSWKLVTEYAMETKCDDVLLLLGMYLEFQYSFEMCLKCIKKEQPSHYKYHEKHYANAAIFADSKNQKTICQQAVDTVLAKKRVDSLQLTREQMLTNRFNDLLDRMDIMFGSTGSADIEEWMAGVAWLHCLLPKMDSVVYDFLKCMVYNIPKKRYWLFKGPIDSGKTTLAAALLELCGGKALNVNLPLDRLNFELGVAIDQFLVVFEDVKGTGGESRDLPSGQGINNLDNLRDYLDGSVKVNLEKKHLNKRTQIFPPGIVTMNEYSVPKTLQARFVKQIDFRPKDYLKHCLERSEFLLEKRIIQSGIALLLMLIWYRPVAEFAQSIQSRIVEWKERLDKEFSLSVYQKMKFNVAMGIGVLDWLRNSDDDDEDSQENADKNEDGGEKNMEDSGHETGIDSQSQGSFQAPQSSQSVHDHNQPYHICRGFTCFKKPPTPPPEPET
Experiment [10] is described as follows: microbe, parasite or virus in culture. The format is functional. The note with it: Mycobacterium tuberculosis.
For the next experiment, the target named is Paired box protein Pax-8 (Homo sapiens, UniProt Q06710). Briefly: inhibitors of PAX8-driven TPO luciferase reporter, dose response, RMG-I cells, cherry-pick (AID 687027).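 Further: luciferase reporter driven by Pax8 target thyroperoxidase promoter measured by SteadyGlo luminescence.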 The format is functional, cell-based.
Chain of Paired box protein Pax-8 (Q06710 whole entry): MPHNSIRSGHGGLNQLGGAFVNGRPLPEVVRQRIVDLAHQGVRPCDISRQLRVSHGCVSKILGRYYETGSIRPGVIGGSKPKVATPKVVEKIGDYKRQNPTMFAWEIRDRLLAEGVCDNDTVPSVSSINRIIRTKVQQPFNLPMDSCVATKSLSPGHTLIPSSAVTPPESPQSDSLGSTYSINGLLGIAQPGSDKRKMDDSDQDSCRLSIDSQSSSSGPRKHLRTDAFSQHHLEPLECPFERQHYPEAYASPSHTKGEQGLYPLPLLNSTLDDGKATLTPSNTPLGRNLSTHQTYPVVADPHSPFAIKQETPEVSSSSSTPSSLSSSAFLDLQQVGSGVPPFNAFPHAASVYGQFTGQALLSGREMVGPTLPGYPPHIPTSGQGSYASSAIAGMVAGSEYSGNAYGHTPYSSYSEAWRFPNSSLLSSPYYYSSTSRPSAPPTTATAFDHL

Turning to `COc1ccc(C2=Nn3c(nnc3-c3ccccn3)SC2)cc1OC`, the concentration for a half-maximal effect (EC50) in experiment [1] was 20.8 µM (active); in experiment [2], 17.2 µM (active); in [3], > 120 µM (not active).
In the case of `CCn1c(-c2ccccc2)c(C(=O)CCl)c2ccccc21`, the EC50 in experiment [4] was 4.12 µM (active); in [5], 7.71 µM (active); in [7], 1.42 µM (active); at Protein RecA, 1.05 µM (active). Besides, the AC50 is 3.27 µM (active) in experiment [6] and 7.82 µM (active) in the experiment with INS1.
In the case of `Cc1cc2oc(=O)c(CC(=O)NCCCN(C)C)c(C)c2c2occ(C(C)(C)C)c12`, the 50% effective concentration (EC50) in experiment [4] was 4.86 µM (active); in experiment [1] it was > 120 µM (not active); in experiment [7], 2.29 µM (active); in experiment [2] it was 8.72 µM (active); in experiment [3] it was 12.6 µM (active). The AC50 in experiment [8] is 1.22 µM (active).
For the compound `Cc1cc(C)n(CCC(=O)N/N=C/c2ccc(O)cc2)n1`, the half-maximal inhibitory concentration (IC50) in experiment [9] was 77.2 µM (active).
For `CC(=O)N1CCN(c2ccc(NCc3cccs3)cc2)CC1`, the half-inhibitory concentration (IC50) in experiment [9] was 14.1 µM (active).
On to `O=C(CN1C(=O)/C(=C\c2ccco2)SC1=S)Nc1ccc(O)cc1C(=O)O`, for which the IC50 on Large T antigen was 74.2 µM (active).
As to `CCCCCn1c(Sc2ccccc2)nc2c1c(=O)[nH]c(=O)n2C`, the figures for the EC50 in [1], in experiment [2] and in experiment [3] were 5.33 µM (active), 16.9 µM (active) and 20.1 µM (active), respectively.
On the same counts, the results for `COC(=O)C1C/C(=N\NS(=O)(=O)c2ccc(C)cc2)c2sccc2C1` (stereo unspecified) are > 120 µM (not active), > 120 µM (not active) and > 120 µM (not active).
Consider `CC(=O)c1ccc(-c2ccccc2[C@H]2[C@H]3C=CC[C@@H](C)[C@@H]3C(=O)N2Cc2ccccc2)cc1`, for which the EC50 in [1] is 30 µM (active); in [2], 22.4 µM (active); in experiment [3], > 120 µM (not active).
Take `O=C1N=C(Nc2ccc(O)cc2)S/C1=C/c1ccco1`: the IC50 at Large T antigen is 3.47 µM (active).
Take `COc1ccc(-n2c(=O)c3c4c(sc3n3c(S)nnc23)COC(C(C)C)C4)cc1` (stereo unspecified): the IC50 at Large T antigen is 16.7 µM (active).
For the compound `CC1(c2ccccc2)CC(C)(C)n2c(O)c(C3=NC(=S)NC3=O)c3cccc1c32` (stereo unspecified), the results for the concentration giving a half-maximal response (EC50) in experiment [1], in experiment [2] and in experiment [3] were 20.5 µM (active), 22.8 µM (active) and 17.6 µM (active), respectively.
As to `Oc1cc(CCl)nc(Cc2c(Cl)cccc2Cl)n1`, the CC50 in experiment [10] was 21.7 µM (active).
Consider `C[C@H]1CCCCO[C@H](CN(C)Cc2ccc(Cl)c(Cl)c2)[C@@H](C)CN([C@@H](C)CO)C(=O)c2cc(NC(=O)Nc3ccc(F)cc3)ccc2O1`, for which, on Paired box protein Pax-8, the AC50 is 25.9 µM (active).
`FC(F)(F)c1cccc(OCc2nnc3n2CCC3)c1`: the half-maximal effective concentration (EC50) in experiment [1], in [2] and in experiment [3] was > 120 µM (not active) in each case.
`Nc1ccc2nc(S)sc2c1`: in [9], the IC50 is 30.4 µM (active).
As for `Nc1cc(C(=O)O)ccc1Nc1ccccc1`, the IC50 on Large T antigen was 12.5 µM (active).
Regarding `COc1ccc(NC(=O)c2sc(S)nc2N)cc1`, at Large T antigen, the IC50 was 7.51 µM (active).
As for `Cc1cc(O)ccc1NC(=O)c1ccccc1`, the concentration for half-maximal inhibition (IC50) in experiment [9] was 69.1 µM (active).
As to `Fc1cc(F)cc(Nc2nc(Cl)nc(NC3CCCC3)n2)c1`, in experiment [10], the CC50 is > 40 µM (active).
On to `C[C@@H]1CCCCO[C@H](CN(C)C)[C@H](C)CN([C@H](C)CO)C(=O)c2cc(NC(=O)Nc3cccc4ccccc34)ccc2O1`, for which the AC50 at Paired box protein Pax-8 is 33.5 µM (active).
On to `Cc1cc(Oc2ccc(=O)n(C)n2)nc(SCc2ccccc2)n1`, for which the EC50 in [1] was > 120 µM (not active); in experiment [2] it was 22.1 µM (active); in experiment [3], 16.6 µM (active).
With `COc1ccc(-c2cn(Cc3ccc(C(=O)NCc4ccc(C)cc4)cc3)c(C(C)N)n2)cc1` (stereo unspecified), the CC50 in [10] is > 40 µM (active).
Consider `COc1ccc(S(=O)(=O)Nc2ccc3c(c2)CC(=O)N([C@H](C)CO)C[C@H](C)[C@@H](CN(C)Cc2ccc(-c4ccccc4)cc2)O3)cc1`, for which the half-maximal activity concentration (AC50) at Paired box protein Pax-8 is 9.41 µM (active).
Consider `Cc1cc(Cl)ccc1OCC(=O)Nc1ccccc1N1CCOCC1`, for which the half-maximal effective concentration (EC50) in [1] is 18.2 µM (active); in experiment [2] it was > 120 µM (not active); in experiment [3] it was > 120 µM (not active).
